Assay results from article PMC10680097 (Biochemistry, 2023).

Assays:
[1] = target: T1, C3/C5-epimerase (HS:42) (Campylobacter jejuni, UniProt F2X7E5); assay: coupled turnover of purified […] to […], D2O exchange at C3 and C5, ESI-MS; assay type: biochemical; conditions: 5.0 mM NADPH and HS:42 C4-reductase, pH 8.0, 40 h
T1 construct: gene HS42.11

[2] = system: C4-reductase (HS:51/HS:53); assay: NADPH oxidation at […] nm; assay type: biochemical, Campylobacter jejuni; conditions: apparent; 300 μM NADPH, 50 mM HEPES pH 7.5, 30 °C; substrate made with Cj1427

T1 sequence (F2X7E5 entry or part of it): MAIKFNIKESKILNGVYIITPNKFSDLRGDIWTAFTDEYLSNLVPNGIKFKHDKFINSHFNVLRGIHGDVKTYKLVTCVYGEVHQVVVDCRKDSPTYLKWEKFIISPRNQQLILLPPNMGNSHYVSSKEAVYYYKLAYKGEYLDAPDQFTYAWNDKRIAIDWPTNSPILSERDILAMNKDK

In the case of Nc1nc2c(ncn2[C@@H]2O[C@H](COP(=O)(O)OP(=O)(O)O[C@H]3O[C@H]([C@H](O)CO)C(=O)[C@H](O)[C@@H]3O)[C@@H](O)[C@H]2O)c(=O)[nH]1 [compound 22, GDP-D-glycero-4-keto-α-D-lyxo-heptose], the “coupled turnover of purified 22 to 30, D2O exchange at C3 and C5, ESI-MS” value [1] is reported as “Epimerases from the same serotype of each C4-reductase were used for each reaction” and the Km [2] is reported as 53 ± 6 µM.
